The values that follow come from US9902696B2, “1,4-substituted piperidine derivatives” (Cephalon, Inc., priority 2015, dated 2018).

The test deals with T1, recombinant human baculovirus-expressed GST-tagged FASN (Homo sapiens, UniProt P49327).
T1 construct: GST
T1 sequence (P49327 whole entry): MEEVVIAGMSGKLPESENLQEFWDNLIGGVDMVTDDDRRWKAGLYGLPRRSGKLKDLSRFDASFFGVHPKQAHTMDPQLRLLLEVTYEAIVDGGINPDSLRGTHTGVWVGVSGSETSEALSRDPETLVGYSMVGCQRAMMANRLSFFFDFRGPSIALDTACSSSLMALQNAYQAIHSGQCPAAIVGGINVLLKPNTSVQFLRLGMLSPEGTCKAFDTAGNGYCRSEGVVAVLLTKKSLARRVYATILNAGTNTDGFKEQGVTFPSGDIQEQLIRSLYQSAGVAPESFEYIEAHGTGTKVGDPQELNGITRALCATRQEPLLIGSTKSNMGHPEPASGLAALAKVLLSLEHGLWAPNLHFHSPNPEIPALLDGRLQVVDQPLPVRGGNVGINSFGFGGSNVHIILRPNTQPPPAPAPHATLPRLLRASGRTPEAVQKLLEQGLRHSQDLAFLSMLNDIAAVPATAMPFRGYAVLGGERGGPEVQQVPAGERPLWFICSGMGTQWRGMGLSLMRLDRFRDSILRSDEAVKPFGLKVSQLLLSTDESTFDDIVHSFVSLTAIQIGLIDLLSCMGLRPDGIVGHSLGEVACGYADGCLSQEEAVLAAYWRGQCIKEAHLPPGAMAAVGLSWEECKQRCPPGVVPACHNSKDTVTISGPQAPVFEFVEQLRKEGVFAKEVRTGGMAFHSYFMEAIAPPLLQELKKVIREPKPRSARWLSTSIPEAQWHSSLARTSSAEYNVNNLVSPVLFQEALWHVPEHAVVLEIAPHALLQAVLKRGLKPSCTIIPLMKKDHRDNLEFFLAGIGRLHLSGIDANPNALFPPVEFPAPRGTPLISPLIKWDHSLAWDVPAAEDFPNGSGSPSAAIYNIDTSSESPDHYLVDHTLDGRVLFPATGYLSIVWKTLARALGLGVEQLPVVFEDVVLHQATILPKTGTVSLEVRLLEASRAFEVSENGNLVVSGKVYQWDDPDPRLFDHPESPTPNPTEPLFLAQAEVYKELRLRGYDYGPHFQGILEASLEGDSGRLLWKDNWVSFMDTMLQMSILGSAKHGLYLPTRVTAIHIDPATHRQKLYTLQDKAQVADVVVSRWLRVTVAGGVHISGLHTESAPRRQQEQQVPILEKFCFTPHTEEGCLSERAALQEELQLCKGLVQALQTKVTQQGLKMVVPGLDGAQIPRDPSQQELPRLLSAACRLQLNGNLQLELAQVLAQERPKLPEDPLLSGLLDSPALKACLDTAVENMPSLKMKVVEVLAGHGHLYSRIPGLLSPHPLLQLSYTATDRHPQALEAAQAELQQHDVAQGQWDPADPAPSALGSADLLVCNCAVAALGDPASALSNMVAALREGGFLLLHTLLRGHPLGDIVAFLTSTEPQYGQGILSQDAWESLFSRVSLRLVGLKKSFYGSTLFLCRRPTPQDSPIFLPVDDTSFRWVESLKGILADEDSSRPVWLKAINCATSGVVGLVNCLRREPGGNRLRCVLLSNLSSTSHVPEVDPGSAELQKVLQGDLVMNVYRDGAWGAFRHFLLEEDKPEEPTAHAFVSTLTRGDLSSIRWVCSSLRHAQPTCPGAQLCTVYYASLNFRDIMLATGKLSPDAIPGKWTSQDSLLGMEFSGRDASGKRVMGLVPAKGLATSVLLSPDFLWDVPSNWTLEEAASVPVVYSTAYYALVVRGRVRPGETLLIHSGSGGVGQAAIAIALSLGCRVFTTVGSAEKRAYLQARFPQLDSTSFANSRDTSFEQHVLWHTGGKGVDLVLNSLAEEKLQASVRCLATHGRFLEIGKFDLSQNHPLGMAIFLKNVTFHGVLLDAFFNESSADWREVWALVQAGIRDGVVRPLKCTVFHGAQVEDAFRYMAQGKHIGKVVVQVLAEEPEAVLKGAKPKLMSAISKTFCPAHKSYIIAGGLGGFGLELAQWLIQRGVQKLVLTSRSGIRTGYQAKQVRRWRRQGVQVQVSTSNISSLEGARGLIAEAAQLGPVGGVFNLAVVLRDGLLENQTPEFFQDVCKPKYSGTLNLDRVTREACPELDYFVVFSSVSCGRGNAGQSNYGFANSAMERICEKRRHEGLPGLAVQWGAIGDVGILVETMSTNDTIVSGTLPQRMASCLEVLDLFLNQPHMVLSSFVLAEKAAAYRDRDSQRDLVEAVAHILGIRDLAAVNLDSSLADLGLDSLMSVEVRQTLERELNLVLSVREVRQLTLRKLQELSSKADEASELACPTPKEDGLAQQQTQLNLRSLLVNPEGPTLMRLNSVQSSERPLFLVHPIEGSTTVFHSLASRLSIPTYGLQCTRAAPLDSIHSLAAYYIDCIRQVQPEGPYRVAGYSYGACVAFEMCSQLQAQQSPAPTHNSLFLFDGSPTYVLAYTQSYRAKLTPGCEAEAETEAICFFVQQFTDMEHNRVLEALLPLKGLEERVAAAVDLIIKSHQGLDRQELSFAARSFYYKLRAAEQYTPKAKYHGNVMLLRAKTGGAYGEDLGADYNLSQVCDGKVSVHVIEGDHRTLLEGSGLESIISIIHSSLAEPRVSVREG
Description: FASN enzyme activity assay, fluorescence-based detection of CoA with CPM. Format: biochemical. To be noted: 5 nM FASN, 150 μM NADPH, 10 μM acetyl-CoA, 25 μM malonyl-CoA, 90 minutes incubation; read-out: IC50 data for Compounds of Formulae I-V/V(a): Activity. Summed up:
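Human GST-tagged FASN, baculovirus-expressed (5 nM), in 50 mM HEPES pH 7.5 with 150 μM NADPH, 10 μM acetyl-CoA, 25 μM malonyl-CoA, 0.5% DMSO; malonyl-CoA-started, 90 min. Released CoA detected with CPM (50 μM dilution), 30 min, fluorescence ex 390/em 530. IC50 from variable-slope sigmoidal fit of % inhibition versus log concentration.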
For `CCC(=O)N1CCC(Oc2ccc(-c3cc(C)c4nccn4c3)cc2)CC1` [Example 284, 1-{4-[4-(8-Methylimidazo[1,2-a]pyridin-6-yl)-phenoxy]-piperidin-1-yl}-propan-1-one], the IC50 is 1 to 10 µM. Then `Cc1c(-c2ccc(OC3CCN(C(=O)[C@H]4CCCO4)CC3)cc2)ccc2nccn12` [Example 285, {4-[4-(5-Methylimidazo[1,2-a]pyridin-6-yl)-phenoxy]-piperidin-1-yl}-(R)-tetrahydrofuran-2-yl-methanone], with 0.001 to 0.099 µM; and `CCC(=O)N1CCC(Oc2ccc(-c3ccc4nccn4c3C)cc2)CC1` [Example 286, 1-{4-[4-(5-Methylimidazo[1,2-a]pyridin-6-yl)-phenoxy]-piperidin-1-yl}-propan-1-one], with 1 to 10 µM. On to `Cc1c(-c2ccc(OC3CCN(C(=O)C4CC4)CC3)cc2)ccc2nccn12` [Example 287, Cyclopropyl-{4-[4-(5-methyl-imidazo[1,2-a]pyridin-6-yl)-phenoxy]-piperidin-1-yl}-methanone], for which the IC50 lay in the range of 0.1 to 0.999 µM. Then `Cc1cc(-c2ccc(OC3CCN(C(=O)C4CC4)CC3)cc2)cn2ccnc12` [Example 288, Cyclopropyl-{4-[4-(8-methylimidazo[1,2-a]pyridin-6-yl)-phenoxy]-piperidin-1-yl}-methanone], with 0.1 to 0.999 µM; and `Cc1nc2ccc(-c3ccc(OC4CCN(C(=O)[C@H]5CCCO5)CC4)cc3)cn2c1C` [Example 289, {4-[4-(2,3-Dimethylimidazo[1,2-a]pyridin-6-yl)-phenoxy]-piperidin-1-yl}-(R)-tetrahydrofuran 2-yl-methanone], with 1 to 10 µM; and `CCC(=O)N1CCC(Oc2ccc(-c3ccc4nc(C)c(C)n4c3)cc2)CC1` [Example 290, 1-{4-[4-(2,3-Dimethylimidazo[1,2-a]pyridin-6-yl)-phenoxy]-piperidin-1-yl}-propan-1-one], with 1 to 10 µM.

Turning to `Cc1nc2ccc(-c3ccc(OC4CCN(C(=O)C5CC5)CC4)cc3)cn2c1C` [Example 291, Cyclopropyl-{4-[4-(2,3-dimethylimidazo[1,2-a]pyridin-6-yl)-phenoxy]-piperidin-1-yl}-methanone], the IC50 lay within 1 to 10 µM.

On to `Cc1cc2nccn2cc1-c1ccc(OC2CCN(C(=O)[C@H]3CCCO3)CC2)cc1` [Example 292, {4-[4-(7-Methylimidazo[1,2-a]pyridin-6-yl)-phenoxy]-piperidin-1-yl}-(R)-tetrahydrofuran-2-yl-methanone], for which the IC50 was in the range of 0.1 to 0.999 µM. The value for `CCC(=O)N1CCC(Oc2ccc(-c3cn4ccnc4cc3C)cc2)CC1` [Example 293, 1-{4-[4-(7-Methylimidazo[1,2-a]pyridin-6-yl)-phenoxy]-piperidin-1-yl}-propan-1-one] was 1 to 10 µM; that for `O=C([C@H]1CCCO1)N1CCC(Oc2ccc(-c3ccc4nccn4c3Cl)cc2)CC1` [Example 294, {4-[4-(5-Chloroimidazo[1,2-a]pyridin-6-yl)-phenoxy]-piperidin-1-yl}-(R)-tetrahydrofuran-2-yl-methanone] was 1 to 10 µM; that for `O=C([C@H]1CCCO1)N1CCC(Oc2ccc(-c3ccc4nccn4c3Cl)cc2)CC1` [Example 295, {4-[4-(5-Chloroimidazo[1,2-a]pyridin-6-yl)-phenoxy]-piperidin-1-yl}-(R)-tetrahydrofuran-2-yl-methanone] was 0.001 to 0.099 µM.

Take `CCC(=O)N1CCC(Oc2ccc(-c3ccc4nccn4c3Cl)cc2)CC1` [Example 296, 1-{4-[4-(5-Chloroimidazo[1,2-a]pyridin-6-yl)-phenoxy]-piperidin-1-yl}-propan-1-one]: the IC50 was 0.1 to 0.999 µM.

For `O=C(C1CC1)N1CCC(Oc2ccc(-c3ccc4nccn4c3Cl)cc2)CC1` [Example 297, {4-[4-(5-Chloroimidazo[1,2-a]pyridin-6-yl)-phenoxy]-piperidin-1-yl}-cyclopropylmethanone], the IC50 lay in the range of 0.1 to 0.999 µM. In the case of `O=C([C@H]1CCCO1)N1CCC(Oc2ccc(-c3ccc4cncn4c3)cc2)CC1` [Example 298, [4-(4-Imidazo[1,5-a]pyridin-6-yl-phenoxy)-piperidin-1-yl]-(R)-tetrahydro-furan-2-yl-methanone], the IC50 was 0.001 to 0.099 µM.

Regarding `CCC(=O)N1CCC(Oc2ccc(-c3ccc4cncn4c3)cc2)CC1` [Example 299, 1-[4-(4-Imidazo[1,5-a]pyridin-6-yl-phenoxy)-piperidin-1-yl]-propan-1-one], the IC50 was in the range of 1 to 10 µM. Then `O=C(C1CC1)N1CCC(Oc2ccc(-c3ccc4cncn4c3)cc2)CC1` [Example 300, Cyclopropyl-[4-(4-imidazo[1,5-a]pyridin-6-yl-phenoxy)-piperidin-1-yl]-methanone], with 1 to 10 µM; and `NC(=O)C1(C(=O)N2CCC(Oc3ccc(-c4ccc5cncn5c4)cc3)CC2)CC1` [Example 301, 1-[4-(4-Imidazo[1,5-a]pyridin-6-yl-phenoxy)-piperidine-1-carbonyl]-cyclopropanecarboxylic acid amide], with 1 to 10 µM.

In the case of `O=C(N1CCC(Oc2ccc(-c3ccc4cncn4c3)cc2)CC1)C1(O)CC1` [Example 302, (1-Hydroxycyclopropyl)-[4-(4-imidazo[1,5-a]pyridin-6-yl-phenoxy)-piperidin-1-yl]-methanone], the IC50 lay within 0.001 to 0.099 µM. The value for `COc1c(-c2ccc(OC3CCN(C(=O)C4(O)CC4)CC3)cc2)ccc2cccnc12` [Example 303, (1-Hydroxycyclopropyl)-{4-[4-(8-methoxy-quinolin-7-yl)-phenoxy]-piperidin-1-yl}-methanone] was 0.001 to 0.099 µM. Then `Cc1c(-c2ccc(OC3CCN(C(=O)C4(CO)CC4)CC3)cc2)ccc2nccn12` [Example 304, (1-Hydroxymethylcyclopropyl)-{4-[4-(5-methyl-imidazo[1,2-a]pyridin-6-yl)-phenoxy]-piperidin-1-yl}-methanone], with 1 to 10 µM; and `Cc1c(-c2ccc(OC3CCN(C(=O)C4(N)CC4)CC3)cc2)ccc2nccn12` [Example 305, (1-Aminocyclopropyl)-{4-[4-(5-methyl-imidazo[1,2-a]pyridin-6-yl)-phenoxy]-piperidin-1-yl}-methanone], with 0.1 to 0.999 µM. Then `O=C(N1CCC(Oc2ccc(-c3ccn4cnnc4c3)cc2)CC1)C1(O)CC1` [Example 306, (1-Hydroxycyclopropyl)-[4-(4-[1,2,4]triazolo[4,3-a]pyridin-7-yl-phenoxy)-piperidin-1-yl]-methanone], with 1 to 10 µM. Regarding `O=C([C@H]1CCCO1)N1CCC(Oc2ccc(-c3ccn4cnnc4c3)cc2)CC1` [Example 307, (R)-Tetrahydrofuran-2-yl-[4-(4-[1,2,4]triazolo[4,3-a]pyridin-7-yl-phenoxy)-piperidin-1-yl]-methanone], the IC50 lay within 0.1 to 0.999 µM. In the case of `O=C(C1CC1)N1CCC(Oc2ccc(-c3ccn4cnnc4c3)cc2)CC1` [Example 308, Cyclopropyl-[4-(4-[1,2,4]triazolo[4,3-a]pyridin-7-yl-phenoxy)-piperidin-1-yl]-methanone], the IC50 fell in the range of 1 to 10 µM. Then `Cc1c(-c2ccc(OC3CCN(C(=O)C4(O)CC4)CC3)cc2)ccc2nccn12` [Example 309, (1-Hydroxycyclopropyl)-{4-[4-(5-methyl-imidazo[1,2-a]pyridin-6-yl)-phenoxy]-piperidin-1-yl}-methanone], with 0.001 to 0.099 µM. Consider `Cc1c(-c2ccc(OC3CCN(C(=O)C(C)(C)O)CC3)cc2)ccc2nccn12` [Example 310, 2-Hydroxy-2-methyl-1-{4-[4-(5-methyl-imidazo[1,2-a]pyridin-6-yl)-phenoxy]-piperidin-1-yl}-propan-1-one], for which the IC50 is 1 to 10 µM.
